This note sets out measurements from patent US20250171451A1, “NOVEL HETEROCYCLIC COMPOUND AND PHARMACEUTICAL COMPOSITION COMPRISING SAME” (Samjin Pharmaceutical Co., Ltd., priority 2022, published 2025).

Bounds are passed on as bounds.

Assay [1] deals with TEAD response element (TRE) luciferase reporter in MCF-7 cell lines. Put plainly: TEAD response element (TRE) reporter assay. It is filed as cell-based. The conditions noted are these: Homo sapiens, MCF7; 0.2 μM compound, 24 hours, MCF-7 TEAD reporter cells, relative to vehicle (1% DMSO). The method, then:
MCF-7 cell lines injected with TEAD reporter genes expressing firefly luciferase upon activation of TEAD response element (TRE) were obtained from BPS bioscience (#60618). The TEAD reporter genes were injected to stable expression in the MCF-7 cell lines.
TEAD reporter genes expressing firefly luciferase upon activation of TEAD response element (TRE) were injected with TEAD reporter genes to ensure stable expression of the TEAD reporter genes. Here, the TEAD reporter genes expresses firefly luciferase upon activation of TEAD response element (TRE). The cells were cultured in a cell-only culture medium (BPS bioscience) to which 10 μg/mL insulin (Sigma) was added at 37° C. and 5% CO2.
In 24 hours after dispensing said cells into a 96-well plate, each of the compounds of the examples or a vehicle solvent (final 1% DMSO) was treated by being diluted with a serum-free culture medium so that the final concentration became 0.2 μM. In 24 hours after said treatment, a luciferase assay working solution (ONE-Step Luciferase assay reagent; BPS bioscience) containing a luciferase substrate was treated in each well at 100 μL, and then left in a shaker for 15 minutes to be well mixed. Then, a degree of luminescence generated by luciferase expressed according to TEAD activation was measured by a microplate reader (TECAN). A relative activity of luciferase […], and the results are shown in table 8 below.

In assay [2] the target is T1, recombinant GST-TEAD1 proteins (209 to 426 a.a.) (Homo sapiens, UniProt P28347).
T1 construct: recombinant GST-TEAD1 proteins (209 to 426 a.a.)
Put plainly: Evaluation of palmitoylation of TEAD protein. It is filed as biochemical. The conditions noted are these: 5 μM compound, 15 minutes preincubation, 3 μM alkyne palmitoyl-CoA 30 minutes, pH 6.4, vs DMSO control. The method, then:
Each compound corresponding to a concentration of 5 μM was added to recombinant GST-TEAD1 proteins (209 to 426 a.a.) and cultured for 15 minutes. For an autopalmitoylation reaction of proteins after culturing, 3 μM alkyne palmitoyl-CoA (Cayman chemical) and 50 mM MES buffer (pH 6.4) were added and cultured for 30 minutes, after which 1% of sodium dodecyl sulfate (SDS) was added to stop the reaction. After that, biotinylation was performed through a CLICK (Click chemistry tools) reaction, and then a protein solution was concentrated to prepare a sample.
Analysis of the sample was performed using SDS-PAGE and streptavidin HRP (Thermo scientific). The resulting values were quantified using an Image J (NIH). For the intensity of the band obtained from Streptavidin blot, a palmitoylation inhibitory activity was analyzed based on the control group (DMSO). The normalization of each sample was performed using an anti-GST (91G1) (cell signaling) antibody.

T1 sequence (P28347 209-426): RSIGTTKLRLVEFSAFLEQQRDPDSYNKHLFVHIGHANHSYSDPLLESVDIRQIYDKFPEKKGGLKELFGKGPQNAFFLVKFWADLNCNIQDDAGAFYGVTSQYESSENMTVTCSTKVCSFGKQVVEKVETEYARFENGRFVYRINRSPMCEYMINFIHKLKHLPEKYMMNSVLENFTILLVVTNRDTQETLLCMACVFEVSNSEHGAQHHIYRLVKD

The compound `C=CS(=O)(=O)Nc1cnc2ncn(-c3ccc(C4CCCCC4)cc3)c2c1` [Compound 1, N-(1-(4-cyclohexylphenyl)-1H-imidazo[4,5-b]pyridin-6-yl)ethenesulfonamide] displayed an inhibition at 0.2 µM in assay [1] below 30%.
In turn, `C=CC(=O)Nc1cnc2ncn(-c3ccc(C4CCCCC4)cc3)c2c1` [Compound 2, N-(1-(4-cyclohexylphenyl)-1H-imidazo[4,5-b]pyridin-6-yl)acrylamide] had an inhibition at 0.2 µM in assay [1] below 30%.
`C=CC(=O)Nc1cnc2c(ccn2Cc2ccc(C(F)(F)F)cc2)c1` [Compound 4, N-(1-(4-(trifluoromethyl)benzyl)-1H-pyrrolo[2,3-b]pyridin-5-yl)acrylamide]: the inhibition at 5 µM in assay [2] fell in the range of 40 to 80%. For the same compound, in assay [1], the inhibition at 0.2 µM was 30 to 50%.
Turning to `C=CC(=O)Nc1ccc2c(cnn2Cc2ccc(C(F)(F)F)cc2)c1` [Compound 6, N-(1-(4-(trifluoromethyl)benzyl)-1H-indazol-5-yl)acrylamide], the inhibition at 5 µM in assay [2] is above 80%. The same compound came in with an inhibition at 0.2 µM in assay [1] of 30 to 50%.
`C=CC(=O)Nc1ccc2c(c1)CCN2Cc1ccc(C(F)(F)F)cc1` [Compound 7, N-(1-(4-(trifluoromethyl)benzyl)indolin-5-yl)acrylamide]: in assay [2], the inhibition at 5 µM was above 80%. This compound also displayed an inhibition at 0.2 µM in assay [1] above 50%.
As to `C=CC(=O)Nc1cnc2c(cnn2CC2CCCC2)c1` [Compound 8, N-(1-(cyclopentylmethyl)-1H-pyrazolo[3,4-b]pyridin-5-yl)acrylamide], in assay [2], the inhibition at 5 µM was in the range of 40 to 80%. Also, the inhibition at 0.2 µM in assay [1] lay in the range of 30 to 50%.
With `C=CC(=O)Nc1cnc2c(c1)c(C)cn2CC1CCCC1` [Compound 9, N-(1-(cyclopentylmethyl)-3-methyl-1H-pyrrolo[2,3-b]pyridin-5-yl)acrylamide], in assay [2], the inhibition at 5 µM is above 80%. Besides, the inhibition at 0.2 µM in assay [1] was above 50%.
With `C=CC(=O)Nc1cnc2c(c1)c(C)cn2CC1CCC(F)(F)CC1` [Compound 10, N-(1-((4,4-difluorocyclohexyl)methyl)-3-methyl-1H-pyrrolo[2,3-b]pyridin-5-yl)acrylamide], the inhibition at 5 µM in assay [2] is above 80%. This compound showed an inhibition at 0.2 µM in assay [1] above 50%.
As for `C=CC(=O)Nc1cnc2c(cnn2CC2CCC(F)(F)CC2)c1` [Compound 11, N-(1-((4,4-difluorocyclohexyl)methyl)-1H-pyrazolo[3,4-b]pyridin-5-yl)acrylamide], the inhibition at 5 µM in assay [2] was 40 to 80%. In assay [1], this compound registered an inhibition at 0.2 µM of 30 to 50%.
As to `C=CC(=O)Nc1cnc2c(cnn2CCCOC(F)(F)F)c1` [Compound 12, N-(1-(3-(trifluoromethoxy)propyl)-1H-pyrazolo[3,4-b]pyridin-5-yl)acrylamide], in assay [2], the inhibition at 5 µM is below 40%. The inhibition at 0.2 µM in assay [1] was below 30%.
The corresponding values for `C=CC(=O)Nc1cnc2c(c1)c(C)nn2Cc1ccc(C(F)(F)F)cc1` [Compound 13, N-(3-methyl-1-(4-(trifluoromethyl)benzyl)-1H-pyrazolo[3,4-b]pyridin-5-yl)acrylamide] are above 80% and 30 to 50%.
On the same counts, the results for `C=CC(=O)Nc1cnc2c(c1)c(C)nn2CC1CCC(F)(F)CC1` [Compound 14, N-(1-((4,4-difluorocyclohexyl)methyl)-3-methyl-1H-pyrazolo[3,4-b]pyridin-5-yl)acrylamide] are 40 to 80% and above 50%.
The corresponding values for `C=CC(=O)Nc1cnc2c(ccn2Cc2ccc(C(F)(F)F)cc2)n1` [Compound 15, N-(5-(4-(trifluoromethyl)benzyl)-5H-pyrrolo[2,3-b]pyrazin-2-yl)acrylamide] are above 80% and above 50%.
Take `C=CC(=O)Nc1cnc2c(cnn2Cc2ccc(C(F)(F)F)cc2)n1` [Compound 16, N-(1-(4-(trifluoromethyl)benzyl)-1H-pyrazolo[3,4-b]pyrazin-5-yl)acrylamide]: the inhibition at 5 µM in assay [2] is below 40%. This compound also gave an inhibition at 0.2 µM in assay [1] above 50%.
Consider `C=CC(=O)Nc1ccc2cnn(Cc3ccc(C(F)(F)F)cc3)c2c1` [Compound 17, N-(1-(4-(trifluoromethyl)benzyl)-1H-indazol-6-yl)acrylamide], for which, in assay [2], the inhibition at 5 µM lay within 40 to 80%. This compound also returned an inhibition at 0.2 µM in assay [1] of 30 to 50%.
The corresponding values for `C=CC(=O)Nc1cnc2c(ccn2Cc2ccc(C(F)(F)F)cc2)c1OC` [Compound 18, N-(4-methoxy-1-(4-(trifluoromethyl)benzyl)-1H-pyrrolo[2,3-b]pyridin-5-yl)acrylamide] are above 80% and 30 to 50%.
The corresponding values for `C=CC(=O)Nc1ncc2cnn(Cc3ccc(C(F)(F)F)cc3)c2n1` [Compound 19, N-(1-(4-(trifluoromethyl)benzyl)-1H-pyrazolo[3,4-d]pyrimidin-6-yl)acrylamide] are below 40% and below 30%.
`C=CC(=O)Nc1ncc2c(C)nn(Cc3ccc(C(F)(F)F)cc3)c2n1` [Compound 20, N-(3-methyl-1-(4-(trifluoromethyl)benzyl)-1H-pyrazolo[3,4-d]pyrimidin-6-yl)acrylamide]: the inhibition at 5 µM in assay [2] was below 40%. The compound also displayed an inhibition at 0.2 µM in assay [1] below 30%.
For the compound `CC=CC(=O)Nc1cnc2c(c1)c(C)cn2Cc1ccc(C(F)(F)F)cc1` [Compound 21, N-(3-methyl-1-(4-(trifluoromethyl)benzyl)-1H-pyrrolo[2,3-b]pyridin-5-yl)but-2-enamide], the inhibition at 5 µM in assay [2] was below 40%. The inhibition at 0.2 µM in assay [1] is below 30%.
The corresponding values for `C=CC(=O)Nc1ncc2c(cnn2Cc2ccc(C(F)(F)F)cc2)n1` [Compound 22, N-(1-(4-(trifluoromethyl)benzyl)-1H-pyrazolo[4,3-d]pyrimidin-5-yl)acrylamide] are below 40% and below 30%.
Consider `CC=CC(=O)Nc1cnc2c(c1)c(C)cn2CCCC` [Compound 23, N-(1-butyl-3-methyl-1H-pyrrolo[2,3-b]pyridin-5-yl)but-2-enamide], for which the inhibition at 5 µM in assay [2] was below 40%. This compound also registered an inhibition at 0.2 µM in assay [1] below 30%.
Consider `C=CC(=O)Nc1cnc2c(c1)c(C)cn2C(=O)c1ccc(C(F)(F)F)cc1` [Compound 24, N-(3-methyl-1-(4-(trifluoromethyl)benzoyl)-1H-pyrrolo[2,3-b]pyridin-5-yl)acrylamide], for which the inhibition at 5 µM in assay [2] is above 80%. The compound further had an inhibition at 0.2 µM in assay [1] below 30%.
For the compound `Cc1cn(Cc2ccc(C(F)(F)F)cc2)c2ncc(NC(=O)C(C)C)cc12` [Compound 25, N-(3-methyl-1-(4-(trifluoromethyl)benzyl)-1H-pyrrolo[2,3-b]pyridin-5-yl)isobutyramide], the inhibition at 5 µM in assay [2] lay in the range of 40 to 80%. Further, the inhibition at 0.2 µM in assay [1] was below 30%.
In the case of `C=CC(=O)Nc1cnc2c(c1)c(C)cn2CCC(C)C` [Compound 26, N-(1-isopentyl-3-methyl-1H-pyrrolo[2,3-b]pyridin-5-yl)acrylamide], the inhibition at 5 µM in assay [2] is above 80%. Moreover, the inhibition at 0.2 µM in assay [1] lay within 30 to 50%.
Take `C=CC(=O)Nc1cnc2c(n1)c(C)cn2Cc1ccc(C(F)(F)F)cc1` [Compound 28, N-(7-methyl-5-(4-(trifluoromethyl)benzyl)-5H-pyrrolo[2,3-b]pyrazin-2-yl)acrylamide]: the inhibition at 5 µM in assay [2] is above 80%. This compound also gave an inhibition at 0.2 µM in assay [1] above 50%.
For the compound `C=CC(=O)Nc1cc2ccn(Cc3ccc(C(F)(F)F)cc3)c2cn1` [Compound 29, N-(1-(4-(trifluoromethyl)benzyl)-1H-pyrrolo[2,3-c]pyridin-5-yl)acrylamide], in assay [2], the inhibition at 5 µM lay in the range of 40 to 80%. The compound also came in with an inhibition at 0.2 µM in assay [1] below 30%.
Take `C=CC(=O)Nc1cnc2ncn(Cc3ccc(C(F)(F)F)cc3)c2c1` [Compound 30, N-(1-(4-(trifluoromethyl)benzyl)-1H-imidazo[4,5-b]pyridin-6-yl)acrylamide]: the inhibition at 5 µM in assay [2] was in the range of 40 to 80%. Moreover, the inhibition at 0.2 µM in assay [1] was below 30%.
For `C=CC(=O)Nc1cnc2c(n1)c(C)nn2Cc1ccc(C(F)(F)F)cc1` [Compound 31, N-(3-methyl-1-(4-(trifluoromethyl)benzyl)-1H-pyrazolo[3,4-b]pyrazin-5-yl)acrylamide], the inhibition at 5 µM in assay [2] lay in the range of 40 to 80%. This compound came in with an inhibition at 0.2 µM in assay [1] above 50%.
As to `C=CC(=O)Nc1ccc2c(C)nn(Cc3ccc(C(F)(F)F)cc3)c2c1` [Compound 32, N-(3-methyl-1-(4-(trifluoromethyl)benzyl)-1H-indazol-6-yl)acrylamide], in assay [2], the inhibition at 5 µM fell in the range of 40 to 80%. In assay [1], the inhibition at 0.2 µM is above 50%.
